Laboratory results taken from US20220041623A1, “INDOLE MACROCYCLIC DERIVATIVE, PREPARATION METHOD THEREOF AND APPLICATION THEREOF IN MEDICINE” (JIANGSU HENGRUI MEDICINE CO., LTD., priority 2018, published 2022).

Biological target: T1, MCL-1 protein (Homo sapiens, UniProt Q07820)
T1 construct: Bim peptide bought from R&D, 3526/1 NA
Experiment: MCL-1 protein binding experiment (HTRF, MCL-1/Bim)
Conditions: for inhibition at up to 10 µM / Maximum inhibition rate (%): HTRF MCL-1/Bim binding, initial concentration 10 μM; for inhibition at up to 10 µM: read-out: Maximum inhibition rate (%); for Ki: HTRF, 0.1 nM His-MCL-1, 2.5 nM bio-Bim, room temperature
Description: The following method was used to determine the binding ability of the compound of the present invention to MCL-1 protein. The experimental method is briefly described as follows.
MCL-1 inhibitors can bind to MCL-1 protein to prevent the binding of MCL-1 to Bim protein. The experiment evaluates the binding ability of MCL-1 inhibitor to MCL-1 protein by detecting the binding of MCL-1 to Bim protein through HTRF method, and the activity of the compound was evaluated according to the Ki value.
The mixture was incubated at room temperature for 2 hours, followed by the detection of fluorescence signals at 620 nm and 665 nm by PHERAstar. The data was processed by GraphPad software.

T1 sequence (Q07820 171-327): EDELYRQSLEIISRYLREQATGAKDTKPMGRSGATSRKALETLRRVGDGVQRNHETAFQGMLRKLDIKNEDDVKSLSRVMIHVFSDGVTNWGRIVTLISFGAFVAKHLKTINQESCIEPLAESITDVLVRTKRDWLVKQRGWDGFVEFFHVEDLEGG

| SMILES | inhibition at up to 10 µM [%] | Ki [nM] | Maximum inhibition rate (%) (10 µM) | Maximum inhibition rate (%) |
| --- | --- | --- | --- | --- |
| Cc1c(C(=O)O)n2c3ccc(Cl)c(c13)-c1c(nn3c1CCCC3)CSCc1cc(n(C)n1)CSc1cc(c3ccccc3c1)OCCC2 [Example 10, 21-Chloro-5,26-dimethyl-32-oxa-2,9-dithia-5,6,12,13,28-pentaazaoctacyclo[31.7.1.1^4,7.0^11,19.0^13,18.0^20,25.0^24,28.0^34,39]dotetraconta-1(41),4(42),6,11,18,20,22,24,26,33,35,37,39-tridecaene-27-carboxylic acid] | 101 | 7.9 |  |  |
| Cc1c(C(=O)O)n2c3ccc(Cl)c(c13)-c1c(nn(C)c1C)CN(C)Cc1cc(n(C)n1)CSc1cc(c3ccccc3c1)OCCC2 (single isomer, unassigned) [Example 3-1, (Ra)-17-Chloro-5,9,13,14,22-pentamethyl-28-oxa-2-thia-5,6,9,12,13,24-hexaazaheptacyclo[27.7.1.1^4,7.0^11,15.0^16,21.0^20,24.0^30,35]octatriaconta-1(37),4(38),6,11,14,16,18,20,22,29,31,33,35-tridecaene-23-carboxylic acid] | 100 | 0.18 |  |  |
| Cc1c(C(=O)O)n2c3ccc(Cl)c(c13)-c1c(nn(C)c1C)CSCc1cc(n(C)n1)CCc1cc3c(c(c1)OCCC2)CCCC3 [Example 8, 17-Chloro-5,13,14,22-tetramethyl-28-oxa-9-thia-5,6,12,13,24-pentaazaheptacyclo[27.7.1.1^4,7.0^11,15.0^16,21.0^20,24.0^30,35]octatriaconta-1(37),4(38),6,11,14,16,18,20,22,29,35-undecaene-23-carboxylic acid] | 100 | 0.55 |  |  |
| Cc1c(C(=O)O)n2c3ccc(Cl)c(c13)-c1c(nn(C)c1C)CSCc1cc(n(C)n1)CCc1cc(c3ccccc3c1)OCCC2 [Example 4, 17-Chloro-5,13,14,22-tetramethyl-28-oxa-9-thia-5,6,12,13,24-pentaazaheptacyclo[27.7.1.1^4,7.0^11,15.0^16,21.0^20,24.0^30,35]octatriaconta-1(37),4(38),6,11,14,16,18,20,22,29,31,33,35-tridecaene-23-carboxylic acid] | 99 | 1.35 |  |  |
| CCc1c(C(=O)O)n2c3ccc(Cl)c(c13)-c1c(nn(C)c1C)CSCc1cc(n(C)n1)CSc1cc(c3ccccc3c1)OCCC2 (single isomer, unassigned) [Example 14-1, (Ra)-17-Chloro-22-ethyl-5,13-14-trimethyl-28-oxa-2,9-dithia-5,6,12,13,24-pentaazaheptacyclo[27.7.1.1^4,7.0^11,15.0^16,21.0^20,24.0^30,35]octatriaconta-1(37),4(38),6,11,14,16,18,20,22,29,31,33,35-tridecaene-23-carboxylic acid] | 100 | 0.32 |  |  |
| Cc1c(C(=O)O)n2c3ccc(Cl)c(c13)-c1c(nn(C)c1C)CN(C)Cc1cc(n(C)n1)CSc1cc(c3ccccc3c1)OCCC2 [Example 3, 17-Chloro-5,9,13,14,22-pentamethyl-28-oxa-2-thia-5,6,9,12,13,24-hexaazaheptacyclo[27.7.1.1^4,7.0^11,15.0^16,21.0^20,24.0^30,35]octatriaconta-1(37),4(38),6,11,14,16,18,20,22,29,31,33,35-tridecaene-23-carboxylic acid] | 100 | 0.6 |  |  |
| Cc1c(C(=O)O)n2c3ccc(Cl)c(c13)-c1c(nn(C)c1C)CSCc1cc(n(C)n1)CSc1cc(c3ccccc3c1)OCCC2 (single isomer, unassigned) [Example 2-2, (Sa)-17-Chloro-5,13,14,22-tetramethyl-28-oxa-2,9-dithia-5,6,12,13,24-pentaazaheptacyclo[27.7.1.1^4,7.0^11,15.0^16,21.0^20,24.0^30,35]octatriaconta-1(37),4(38),6,11,14,16,18,20,22,29,31,33,35-tridecaene-23-carboxylic acid] |  | 65 | 95 |  |
| Cc1c(C(=O)O)n2c3ccc(Cl)c(c13)-c1c(nn(C)c1C)CSCc1cc(n(C)n1)CSc1cc3c(c(c1)OCCC2)CCC3 (single isomer, unassigned) [Example 13-2, (Sa)-17-Chloro-5,13,14,22-tetramethyl-28-oxa-2,9-dithia-5,6,12,13,24-pentaazaheptacyclo[27.6.1.1^4,7.0^11,15.0^16,21.0^20,24.0^30,34]heptatriaconta-1(36),4(37),6,11,14,16,18,20,22,29,34-undecaene-23-carboxylic acid] |  | 4.4 | 99 |  |
| Cc1c(C(=O)O)n2c3ccc(Cl)c(c13)-c1c(nn(C)c1C)CSCc1cc(n(C)n1)CCc1cc3c(c(c1)OCCC2)CCCC3 (single isomer, unassigned) [Example 8-2, (Sa)-17-Chloro-5,13,14,22-tetramethyl-28-oxa-9-thia-5,6,12,13,24-pentaazaheptacyclo[27.7.1.1^4,7.0^11,15.0^16,21.0^20,24.0^30,35]octatriaconta-1(37),4(38),6,11,14,16,18,20,22,29,35-undecaene-23-carboxylic acid] |  | 57 | 98 |  |
| Cc1c(C(=O)O)n2c3ccc(Cl)c(c13)-c1c(nn3c1CCCC3)CN(C)Cc1cc(n(C)n1)CSc1cc(c3ccccc3c1)OCCC2 [Example 11, 21-Chloro-5,9,26-trimethyl-32-oxa-2-thia-5,6,9,12,13,28-hexaazaoctacyclo[31.7.1.1^4,7.0^11,19.0^13,18.0^20,25.0^24,28.0^34,39]dotetraconta-1(41),4(42),6,11,18,20,22,24,26,33,35,37,39-tridecaene-27-carboxylic acid] | 100 | 3 |  |  |
| Cc1c(C(=O)O)n2c3ccc(Cl)c(c13)-c1c(nn(C)c1C)CSCc1cc(n(C)n1)CSc1cc(c3ccccc3c1)OCCC2 [Example 2, 17-Chloro-5,13,14,22-tetramethyl-28-oxa-2,9-dithia-5,6,12,13,24-pentaazaheptacyclo[27.7.1.1^4,7.0^11,15.0^16,21.0^20,24.0^30,35]octatriaconta-1(37),4(38),6,11,14,16,18,20,22,29,31,33,35-tridecaene-23-carboxylic acid] | 99 | 0.18 |  |  |
| Cc1c2c(nn1C)CSCc1cc(n(C)n1)CSc1cc(c3ccccc3c1)OCCCn1c(C(=O)O)cc3c-2c(Cl)ccc31 (single isomer, unassigned) [Example 1-1, (Ra)-17-Chloro-5,13-14-trimethyl-28-oxa-2,9-dithia-5,6,12,13,24-pentaazaheptacyclo[27.7.1.1^4,7.0^11,15.0^16,21.0^20,24.0^30,35]octatriaconta-1(37),4(38),6,11,14,16,18,20,22,29,31,33,35-tridecaene-23-carboxylic acid] | 100 | 0.36 |  |  |
| Cc1cc2cc(c1)SCc1cc(nn1C)CSCc1nn(C)c(C)c1-c1c(Cl)ccc3c1c(C)c(C(=O)O)n3CCCO2 [Example 6, 17-Chloro-5,13,14,22,31-pentamethyl-28-oxa-2,9-dithia-5,6,12,13,24-pentaazahexacyclo[27.3.1.1^4,7.0^11,15.0^16,21.0^20,24]tetratriaconta-1(33),4(34),6,11,14,16,18,20,22,29,31-undecaene-23-carboxylic acid] | 98 | 1.9 |  |  |
| Cc1c(C(=O)O)n2c3ccc(Cl)c(c13)-c1c(nn(C)c1C)CSCc1cc(n(C)n1)CSc1cc(cc3c1CCC3)OCCC2 (single isomer, unassigned) [Example 12-2, (Sa)-17-Chloro-5,13,14,22-tetramethyl-28-oxa-2,9-dithia-5,6,12,13,24-pentaazaheptacyclo[27.6.1.1^4,7.0^11,15.0^16,21.0^20,24.0^30,35]heptatriaconta-1(36),4(37),6,11,14,16,18,20,22,29,31(35)-undecaene-23-carboxylic acid] |  | 5.7 |  | 100 |
| Cc1c2c(nn1C)CSCc1cc(n(C)n1)CSc1cc(c3ccccc3c1)OCCCn1c(C(=O)O)cc3c-2c(Cl)ccc31 [Example 1, 17-Chloro-5,13-14-trimethyl-28-oxa-2,9-dithia-5,6,12,13,24-pentaazaheptacyclo[27.7.1.1^4,7.0^11,15.0^16,21.0^20,24.0^30,35]octatriaconta-1(37),4(38),6,11,14,16,18,20,22,29,31,33,35-tridecaene-23-carboxylic acid] | 100 | 2.39 |  |  |
| Cc1c(C(=O)O)n2c3ccc(Cl)c(c13)-c1c(nn(C)c1C)CSCc1cc(n(C)n1)CSc1cc3c(c(c1)OCCC2)CCCC3 [Example 7, 17-Chloro-5,13,14,22-tetramethyl-28-oxa-2,9-dithia-5,6,12,13,24-pentaazaheptacyclo[27.7.1.1^4,7.0^11,15.0^16,21.0^20,24.0^30,35]octatriaconta-1(37),4(38),6,11,14,16,18,20,22,29,35-undecaene-23-carboxylic acid] | 99 | 0.71 |  |  |
| Cc1c(C(=O)O)n2c3ccc(Cl)c(c13)-c1c(nn(C)c1C)CSCc1cc(n(C)n1)CSc1cc3c(c(c1)OCCC2)CCCC3 (single isomer, unassigned) [Example 7-2, (Sa)-17-Chloro-5,13,14,22-tetramethyl-28-oxa-2,9-dithia-5,6,12,13,24-pentaazaheptacyclo[27.7.1.1^4,7.0^11,15.0^16,21.0^20,24.0^30,35]octatriaconta-1(37),4(38),6,11,14,16,18,20,22,29,35-undecaene-23-carboxylic acid] |  | 15 | 100 |  |
